Tested on: MV-4-11 cells
Test: Gene expression microarray analysis (Affymetrix PrimeView) and GSEA
Assay type: cell-based, human
Parameters: RFU PODN (11730768_x_at) / Fold change /veh PODN (11730768_x_at) / RFU LINC00158 (11744669_a_at) / Fold change /veh LINC00158 (11744669_a_at) / RFU DUSP10 (11751237_a_at) / Fold change /veh DUSP10 (11751237_a_at) / RFU ID3 (11757404_x_at) / Fold change /veh ID3 (11757404_x_at) / RFU PLEKHG5 (11737974_s_at) / Fold change /veh PLEKHG5 (11737974_s_at) / RFU LRRC4B (11730491_at) / Fold change /veh LRRC4B (11730491_at) / RFU GIMAP4 (11747438_a_at) / Fold change /veh GIMAP4 (11747438_a_at) / RFU KRT8 (11758183_x_at) / Fold change /veh KRT8 (11758183_x_at) / RFU CNN1 (11734310_a_at) / Fold change /veh CNN1 (11734310_a_at) / RFU VPS37D (11726825_at) / Fold change /veh VPS37D (11726825_at) / RFU C10orf10 (11716522_x_at) / Fold change /veh C10orf10 (11716522_x_at) / RFU KIR2DL2 /// KIR2DL4 /// KIR2DL5A /// KIR2DL5B /// KIR2DS1 /// KIR2DS2 /// KIR2DS3 /// KIR2DS4 /// KIR3DL3 /// KIR3DL3 /// KIR3DS1 (11738374_at) / Fold change /veh KIR2DL2 /// KIR2DL4 /// KIR2DL5A /// KIR2DL5B /// KIR2DS1 /// KIR2DS2 /// KIR2DS3 /// KIR2DS4 /// KIR3DL3 /// KIR3DL3 /// KIR3DS1 (11738374_at) / RFU C1QL1 (11718748_at) / Fold change /veh C1QL1 (11718748_at) / RFU TMPRSS4 (11747572_a_at) / Fold change /veh TMPRSS4 (11747572_a_at) / RFU HAMP (11756126_x_at) / Fold change /veh HAMP (11756126_x_at) / RFU RNFT2 (11725882_a_at) / Fold change /veh RNFT2 (11725882_a_at) / RFU NR4A2 (11747474_a_at) / Fold change /veh NR4A2 (11747474_a_at) / RFU ABCC12 (11746883_a_at) / Fold change /veh ABCC12 (11746883_a_at) / RFU TMEM136 (11760407_x_at) / Fold change /veh TMEM136 (11760407_x_at) / RFU CLDN22 /// WWC2 (11732394_at) / Fold change /veh CLDN22 /// WWC2 (11732394_at) / RFU HLA-DPB1 (11760878_x_at) / Fold change /veh HLA-DPB1 (11760878_x_at) / RFU SPINT1 (11716480_a_at) / Fold change /veh SPINT1 (11716480_a_at) / RFU GAP43 (11754022_s_at) / Fold change /veh GAP43 (11754022_s_at) / RFU A4GNT (11735810_at) / Fold change /veh A4GNT (11735810_at) / RFU PRB3 (11715151_x_at) / Fold change /veh PRB3 (11715151_x_at) / RFU TUBB4B (11761932_at) / Fold change /veh TUBB4B (11761932_at) / RFU CAPN14 (11732068_a_at) / Fold change /veh CAPN14 (11732068_a_at) / RFU TMCC2 (11721928_a_at) / Fold change /veh TMCC2 (11721928_a_at) / RFU IRGQ (11745062_a_at) / Fold change /veh IRGQ (11745062_a_at) / RFU FAM174B (11720279_a_at) / Fold change /veh FAM174B (11720279_a_at) / RFU TMPRSS4 (11748680_a_at) / Fold change /veh TMPRSS4 (11748680_a_at) / RFU FAM212B (11763350_a_at) / Fold change /veh FAM212B (11763350_a_at) / RFU PLEKHG5 (11743358_a_at) / Fold change /veh PLEKHG5 (11743358_a_at) / RFU ZSCAN30 (11745921_a_at) / Fold change /veh ZSCAN30 (11745921_a_at) / RFU CMKLR1 (11741424_a_at) / Fold change /veh CMKLR1 (11741424_a_at) / RFU LOC101060620 /// MAPK8IP1 (11723275_at) / Fold change /veh LOC101060620 /// MAPK8IP1 (11723275_at) / RFU SPTSSB (11747773_x_at) / Fold change /veh SPTSSB (11747773_x_at) / RFU PRSS12 (11739890_at) / Fold change /veh PRSS12 (11739890_at) / RFU BIN1 (11741810_x_at) / Fold change /veh BIN1 (11741810_x_at) / RFU WNT11 (11732464_a_at) / Fold change /veh WNT11 (11732464_a_at) / RFU C10orf10 (11716521_a_at) / Fold change /veh C10orf10 (11716521_a_at) / RFU C5orf56 (11738089_at) / Fold change /veh C5orf56 (11738089_at) / RFU CYB561 (11721691_x_at) / Fold change /veh CYB561 (11721691_x_at) / RFU ANKRD19P (11752326_a_at) / Fold change /veh ANKRD19P (11752326_a_at) / RFU OR2T12 /// OR2T33 /// OR2T8 (11738714_s_at) / Fold change /veh OR2T12 /// OR2T33 /// OR2T8 (11738714_s_at) / RFU VCAN (11748164_a_at) / Fold change /veh VCAN (11748164_a_at) / RFU JSRP1 (11732532_at) / Fold change /veh JSRP1 (11732532_at) / RFU KRTAP10-11 (11738290_x_at) / Fold change /veh KRTAP10-11 (11738290_x_at) / RFU MYO3A (11730013_a_at) / Fold change /veh MYO3A (11730013_a_at) / RFU EBF3 (11725865_a_at) / Fold change /veh EBF3 (11725865_a_at) / RFU CAMK2N1 (11719241_x_at) / Fold change /veh CAMK2N1 (11719241_x_at) / RFU C5orf56 (11738088_a_at) / Fold change /veh C5orf56 (11738088_a_at) / RFU OLFML3 (11715873_a_at) / Fold change /veh OLFML3 (11715873_a_at) / RFU LOC100653217 /// NTM (11731650_a_at) / Fold change /veh LOC100653217 /// NTM (11731650_a_at) / RFU MAPK11 (11762145_a_at) / Fold change /veh MAPK11 (11762145_a_at) / RFU FIZ1 (11724087_x_at) / Fold change /veh FIZ1 (11724087_x_at) / RFU OASL (11726364_x_at) / Fold change /veh OASL (11726364_x_at) / RFU SOX15 (11748057_x_at) / Fold change /veh SOX15 (11748057_x_at) / RFU CD79A (11719716_a_at) / Fold change /veh CD79A (11719716_a_at) / RFU HIST1H1D (11736915_at) / Fold change /veh HIST1H1D (11736915_at) / RFU CASKIN2 (11723855_a_at) / Fold change /veh CASKIN2 (11723855_a_at) / RFU LOC730098 (11760151_x_at) / Fold change /veh LOC730098 (11760151_x_at) / RFU OR4N2 (11742367_at) / Fold change /veh OR4N2 (11742367_at) / RFU PRRT2 (11749266_a_at) / Fold change /veh PRRT2 (11749266_a_at) / RFU SNX32 (11753110_a_at) / Fold change /veh SNX32 (11753110_a_at) / RFU CDHR5 (11726645_a_at) / Fold change /veh CDHR5 (11726645_a_at) / RFU RCAN1 (11760418_a_at) / Fold change /veh RCAN1 (11760418_a_at) / RFU FAM167A (11723789_a_at) / Fold change /veh FAM167A (11723789_a_at) / RFU FAM26E (11764081_at) / Fold change /veh FAM26E (11764081_at) / RFU ISYNA1 (11749810_s_at) / Fold change /veh ISYNA1 (11749810_s_at) / RFU ACY1 (11761880_at) / Fold change /veh ACY1 (11761880_at) / RFU 11764098_at / Fold change /veh 11764098_at / RFU SAMD14 (11745864_x_at) / Fold change /veh SAMD14 (11745864_x_at) / RFU NPB (11741838_a_at) / Fold change /veh NPB (11741838_a_at) / RFU TMPRSS6 (11731388_a_at) / Fold change /veh TMPRSS6 (11731388_a_at) / RFU KRTAP10-2 (11738614_at) / Fold change /veh KRTAP10-2 (11738614_at) / RFU ARHGAP8 /// PRR5-ARHGAP8 (11727945_x_at) / Fold change /veh ARHGAP8 /// PRR5-ARHGAP8 (11727945_x_at) / RFU KRTAP5-7 /// NADSYN1 (11734609_at) / Fold change /veh KRTAP5-7 /// NADSYN1 (11734609_at) / RFU RASL12 (11751679_a_at) / Fold change /veh RASL12 (11751679_a_at) / RFU CDKN2B (11736163_a_at) / Fold change /veh CDKN2B (11736163_a_at) / RFU PRF1 (11729649_at) / Fold change /veh PRF1 (11729649_at) / RFU, ZNF638 /// ZNF638-IT1 / Fold change vs veh, ZNF638 /// ZNF638-IT1 / RFU, PANK3 / Fold change vs veh, PANK3 / RFU, SH3YL1 / Fold change vs veh, SH3YL1 / RFU, ZEB2 / Fold change vs veh, ZEB2 / RFU, NRIP1 / Fold change vs veh, NRIP1 / RFU, PTTG1IP / Fold change vs veh, PTTG1IP / RFU, CAPN2 / Fold change vs veh, CAPN2 / RFU, MED14 / Fold change vs veh, MED14 / RFU, SNORA58 / Fold change vs veh, SNORA58 / RFU, C1orf63 / Fold change vs veh, C1orf63 / RFU, LRRFIP1 / Fold change vs veh, LRRFIP1 / RFU, NDUFAF7 / Fold change vs veh, NDUFAF7 / RFU, SLC12A2 / Fold change vs veh, SLC12A2 / RFU, IBTK / Fold change vs veh, IBTK / RFU, ESF1 / Fold change vs veh, ESF1 / Fold change vs veh, TMEM50B / RFU, TAOK1 / Fold change vs veh, TAOK1 / RFU, ACBD3 / Fold change vs veh, ACBD3 / RFU, TMA16 / Fold change vs veh, TMA16 / RFU, RWDD3 / Fold change vs veh, RWDD3 / RFU, BCAT1 / Fold change vs veh, BCAT1 / RFU, EDEM3 / Fold change vs veh, EDEM3 / RFU, TMEM33 / Fold change vs veh, TMEM33 / RFU, WDR75 / Fold change vs veh, WDR75 / RFU, AHCTF1 / Fold change vs veh, AHCTF1 / RFU, TFRC / Fold change vs veh, TFRC / RFU, ZDHHC17 / Fold change vs veh, ZDHHC17 / RFU, NOM1 / Fold change vs veh, NOM1 / RFU, ARL8B / Fold change vs veh, ARL8B / RFU, ZBTB11 / Fold change vs veh, ZBTB11 / RFU, TAMM41 / Fold change vs veh, TAMM41 / RFU, KIAA1704 /// LOC100996395 / Fold change vs veh, KIAA1704 /// LOC100996395 / RFU, ING1 / Fold change vs veh, ING1 / RFU, TRMT61B / Fold change vs veh, TRMT61B / RFU, FUBP3 / Fold change vs veh, FUBP3 / RFU, TP53 / Fold change vs veh, TP53 / RFU, TNKS2 / Fold change vs veh, TNKS2 / RFU, ZFP14 / Fold change vs veh, ZFP14 / RFU, ACTR2 / Fold change vs veh, ACTR2 / RFU, PPP3R1 / Fold change vs veh, PPP3R1 / RFU, PIK3R1 / Fold change vs veh, PIK3R1 / RFU, HNRNPA1 / Fold change vs veh, HNRNPA1 / RFU, RNF170 / Fold change vs veh, RNF170 / RFU, ZNF28 / Fold change vs veh, ZNF28 / RFU, RNGTT / Fold change vs veh, RNGTT / RFU, OGT / Fold change vs veh, OGT / RFU, BRD1 / Fold change vs veh, BRD1 / RFU, MARS / Fold change vs veh, MARS / RFU, ZNF655 / Fold change vs veh, ZNF655 / RFU, FAHD1 / Fold change vs veh, FAHD1 / RFU, BDP1 / Fold change vs veh, BDP1 / RFU, LRRCC1 / Fold change vs veh, LRRCC1 / RFU, ARID1A / Fold change vs veh, ARID1A / RFU, ZNF146 / Fold change vs veh, ZNF146 / RFU, ZNF330 / Fold change vs veh, ZNF330 / RFU, GPN3 / Fold change vs veh, GPN3 / RFU, C9orf123 / Fold change vs veh, C9orf123 / RFU, N4BP2L2 / Fold change vs veh, N4BP2L2 / RFU, ARFIP1 / Fold change vs veh, ARFIP1 / RFU, FAM179B / Fold change vs veh, FAM179B / RFU, BCL10 / Fold change vs veh, BCL10 / RFU, UHRF1BP1L / Fold change vs veh, UHRF1BP1L / RFU, BET1 / Fold change vs veh, BET1 / RFU, CNOT2 / Fold change vs veh, CNOT2 / RFU, ZNF268 / Fold change vs veh, ZNF268 / Fold change vs veh, ZNF507 / RFU, DGCR2 / Fold change vs veh, DGCR2 / RFU, WDSUB1 / Fold change vs veh, WDSUB1 / Fold change vs veh, HSP90B1 /// MIR3652 / RFU, ADSS / Fold change vs veh, ADSS / RFU, GK / Fold change vs veh, GK / RFU, ZNF148 / Fold change vs veh, ZNF148 / RFU, TAF9 / Fold change vs veh, TAF9 / RFU, SLC1A5 / Fold change vs veh, SLC1A5 / RFU, SLMO2 / Fold change vs veh, SLMO2 / RFU, ABCC4 / Fold change vs veh, ABCC4 / RFU, LOC101060439 /// RAP1B / Fold change vs veh, LOC101060439 /// RAP1B / RFU, RFX7 / Fold change vs veh, RFX7 / RFU, GTPBP10 / Fold change vs veh, GTPBP10 / RFU, CNEP1R1 / Fold change vs veh, CNEP1R1 / RFU, BIVM-ERCC5 /// ERCC5 / Fold change vs veh, BIVM-ERCC5 /// ERCC5 / RFU, ILF3 / Fold change vs veh, ILF3 / RFU 11762660_at / Fold change /veh 11762660_at / RFU VCAN (11757783_s_at) / Fold change /veh VCAN (11757783_s_at) / RFU DDX43 (11728927_at) / Fold change /veh DDX43 (11728927_at) / RFU KRT8 (11758188_x_at) / Fold change /veh KRT8 (11758188_x_at) / RFU NKD1 (11759106_at) / Fold change /veh NKD1 (11759106_at) / RFU SRD5A1 (11742802_a_at) / Fold change /veh SRD5A1 (11742802_a_at) / RFU TPSAB1 /// TPSB2 (11721975_s_at) / Fold change /veh TPSAB1 /// TPSB2 (11721975_s_at) / RFU GSTM3 (11746129_a_at) / Fold change /veh GSTM3 (11746129_a_at) / RFU IL23R (11737362_x_at) / Fold change /veh IL23R (11737362_x_at) / RFU TMEM51 (11727254_a_at) / Fold change /veh TMEM51 (11727254_a_at) / RFU PIWIL2 (11732686_x_at) / Fold change /veh PIWIL2 (11732686_x_at) / RFU ORM1 (11744905_x_at) / Fold change /veh ORM1 (11744905_x_at) / RFU CCDC152 (11743942_at) / Fold change /veh CCDC152 (11743942_at) / RFU ECM1 (11717891_a_at) / Fold change /veh ECM1 (11717891_a_at) / RFU IL23R (11748794_a_at) / Fold change /veh IL23R (11748794_a_at) / RFU TNFAIP8L3 (11732012_x_at) / Fold change /veh TNFAIP8L3 (11732012_x_at) / RFU MBOAT4 (11741988_at) / Fold change /veh MBOAT4 (11741988_at) / RFU 11764193_at / Fold change /veh 11764193_at / RFU TMEM53 (11763286_at) / Fold change /veh TMEM53 (11763286_at) / RFU MAGEB2 (11727129_at) / Fold change /veh MAGEB2 (11727129_at) / RFU TMEM200A (11744735_a_at) / Fold change /veh TMEM200A (11744735_a_at) / RFU CCDC152 (11751479_a_at) / Fold change /veh CCDC152 (11751479_a_at) / RFU FAM211A (11726209_a_at) / Fold change /veh FAM211A (11726209_a_at) / RFU RGS16 (11746705_a_at) / Fold change /veh RGS16 (11746705_a_at) / RFU VCAN (11755009_s_at) / Fold change /veh VCAN (11755009_s_at) / RFU RHOB (11743442_s_at) / Fold change /veh RHOB (11743442_s_at) / RFU RGS16 (11720943_a_at) / Fold change /veh RGS16 (11720943_a_at) / RFU RGS16 (11720944_at) / Fold change /veh RGS16 (11720944_at) / RFU, VPS4B / Fold change vs veh, VPS4B / RFU, CREB1 / Fold change vs veh, CREB1 / RFU, DNAJC13 / Fold change vs veh, DNAJC13 / RFU, GNAQ / Fold change vs veh, GNAQ / RFU, CDK5R1 / Fold change vs veh, CDK5R1 / RFU, ZRANB3 / Fold change vs veh, ZRANB3 / RFU, CUL4A / Fold change vs veh, CUL4A / RFU, CCNY / Fold change vs veh, CCNY / RFU, UFL1 / Fold change vs veh, UFL1 / RFU, COG3 / Fold change vs veh, COG3 / RFU, DIAPH2 / Fold change vs veh, DIAPH2 / RFU, SKA2 / Fold change vs veh, SKA2 / RFU, AFF3 / Fold change vs veh, AFF3 / RFU, LMF1 / Fold change vs veh, LMF1 / RFU, IPO11 / Fold change vs veh, IPO11 / RFU, DFFB / Fold change vs veh, DFFB / RFU, FOXP1 / Fold change vs veh, FOXP1 / RFU, CARD8 / Fold change vs veh, CARD8 / RFU, STRN3 / Fold change vs veh, STRN3 / RFU, ADK / Fold change vs veh, ADK / RFU, RASSF2 / Fold change vs veh, RASSF2 / RFU, WIPF1 / Fold change vs veh, WIPF1 / RFU, LARP1B / Fold change vs veh, LARP1B / RFU, RASA1 / Fold change vs veh, RASA1 / RFU, RB1 / Fold change vs veh, RB1 / RFU, PPFIA1 / Fold change vs veh, PPFIA1 / RFU, MAT2A / Fold change vs veh, MAT2A / RFU, CCT5 / Fold change vs veh, CCT5 / RFU, WDR92 / Fold change vs veh, WDR92 / RFU, CUX1 / Fold change vs veh, CUX1 / RFU, TTC7A / Fold change vs veh, TTC7A / RFU, TMEM135 / Fold change vs veh, TMEM135 / RFU, DEPTOR / Fold change vs veh, DEPTOR / RFU, CPM / Fold change vs veh, CPM / RFU, DNAJB6 / Fold change vs veh, DNAJB6 / RFU, CACNA2D3 / Fold change vs veh, CACNA2D3 / RFU, DTX4 / Fold change vs veh, DTX4 / RFU, TFCP2 / Fold change vs veh, TFCP2 / RFU, GMCL1 /// GMCL1P1 / Fold change vs veh, GMCL1 /// GMCL1P1 / RFU, AEBP2 / Fold change vs veh, AEBP2 / RFU, SNHG1 /// SNORD22 /// SNORD25 /// SNORD26 /// SNORD27 /// SNORD28 /// SNORD29 /// SNORD31 / Fold change vs veh, SNHG1 /// SNORD22 /// SNORD25 /// SNORD26 /// SNORD27 /// SNORD28 /// SNORD29 /// SNORD31 / Fold change (Aza/veh), C12orf56 (ProbeSet 11735607_a_at) / Fold change (ACY-1035/veh), C12orf56 (ProbeSet 11735607_a_at) / Fold change (Aza/veh), FGFR1OP (ProbeSet 11751329_s_at) / Fold change (ACY-1035/veh), FGFR1OP (ProbeSet 11751329_s_at) / Fold change (Aza/veh), VPS36 (ProbeSet 11739960_a_at) / Fold change (ACY-1035/veh), VPS36 (ProbeSet 11739960_a_at) / RFU SYPL1 (11715823_x_at) / Fold change /veh SYPL1 (11715823_x_at) / RFU IGFBP7 (11715501_s_at) / Fold change /veh IGFBP7 (11715501_s_at) / RFU REEP3 (11722064_at) / Fold change /veh REEP3 (11722064_at) / RFU IGLL1 (11728026_x_at) / Fold change /veh IGLL1 (11728026_x_at): dose or concentration left out as unconfirmed
Conditions: MV-4-11 cells, 48 hours

Question: `Nc1ccc(-c2cccs2)cc1NC(=O)c1ccc2c(c1)cc(C1CC1)n2CCN1CCOCC1` [ACY-1035] was tested. Which “RFU FAM212B (11763350_a_at)” value did it give?
Answer: 31.32 RFU

— publication PMC5218480 (PLoS ONE, 2017)
